*: point of attachment. NHNH2 = NN*
Columns and labels:
Type in all cases: cell-based
[1] = system: A549 cells expressing EGFP; assay: Cas9-RNP delivery against EGFP (gene editing, plate reader), A549; details: A549 cells
Method: To generate an EGFP expressing HeLa cell line, HeLa cells were transfected with EGFP pDNA (pEGFP-C1, Clontech) and stable transfectants were selected with 400 μg/mL of G-418 (Millipore). Green clones were selected by epifluorescence microscopy and tested for EGFP expression stability through several passages. […] All other EGFP-expressing cell lines were obtained in a similar way from parent non-EGFP-expressing cell lines.
Cells expressing EGFP were seeded in a 96 well plate the day before the experiment at a concentration of 50,000 cell/mL (100 μL/w) in DMEM+10% FBS+1% Gln-Abt. For robotic library screening, the delivery of Cas9-RNP against EGFP (RNP designed to knock-out the gene encoding for the enhanced green fluorescent protein (EGFP)) was performed. For RNP assembly, 9.2 μL of crRNA and 9.2 μL of tracrRNA were mixed in 211.6 μL of Nuclease-Free Duplex Buffer (IDT), incubated for 5 min at 95° C. and slowly cooled at rt (see I. Lostalé-Seijo, et al. Peptide/Cas9 nanostructures for ribonucleoprotein cell membrane transport and gene edition, Chem. Sci., 2017). Cas9 protein was dissolved in DMEM at a final concentration of 4 μM and equal volumes of the RNA complex and Cas9 were mixed and incubated for 5 min at rt. 75 μL of the corresponding amphiphile concentrations were added to 5 μL of RNP at 2 μM. The mixture was shaken for 30 min at room temperature before the addition to the cells. The cell medium was aspirated, and cells were washed twice with PBS. Cells were covered with 30 μL of DMEM and 20 μL of the RNP/amphiphile complexes were added to the cells (final peptide concentrations=2.5, 5 and 10 μM; final Cas9-RNP concentration=50 nM) and incubated for 4 h. After the incubation, the medium was replaced by 100 μL of fresh DMEM supplemented with 10% FBS. The total EGFP fluorescence was quantified after 72 h in a plate reader (FIG. 2, Table 1 (right) and Table 6). All experiments were done in triplicate.
(§1) Tables 1-7: RLuc (pDNA) or EGFP (mRNA) expression levels were normalized to Lipofectamine reagents (value=1) and expressed as fold-times signal increase. In the case of siRNA, the siRNA treated cells fluorescence was compared with siMOCK control fluorescence, while Cas9-RNP mediated knockout was measured against the fluorescence of untreated cells. In both siRNA and Cas9-RNP, values are expressed as % fluorescence reduction. Amphiphile concentration was 5 μM in all cases. All experiments were performed in triplicate.
Tables 26-31 show the mean (triplicates) percentage of gene editing, accounted by GFP fluorescence intensity decrease (% of reduction), measured after the transfection of Cas9-RNP by different amphiphiles at different concentrations in a variety of cell lines. Background values, accounted by untreated control cells, were subtracted for processing.

[2] = system: HCT116 cells; assay: RLuc pDNA delivery, robotic library screening, HCT116
[3] = system: Hela cells; assay: EGFP mRNA delivery, robotic library screening, HeLa
Method: (§2) Cells were seeded in a 96 well plate the day before the experiment at a concentration of 50,000 cell/mL (100 μL/w) in DMEM+10% FBS+1% Gln-Abt. For robotic library screening, the delivery of EGFP-mRNA (from TriLink, fully substituted with 5-methoxyuridine, capped and polyadenylated; TriLink, CleanCap® EGFP mRNA (5moU), ref. L-7201) in six different cell lines was performed. Amphiphilic molecule stock solutions were prepared in DMSO as described above and diluted in DMEM to afford a range of concentrations. The solutions of EGFP-mRNA/amphiphilic molecule complexes were freshly prepared prior to the transfection experiments. 35 μL of the corresponding amphiphile were added to 10 μL of a solution of EGFP-mRNA at 10 ng/μL in DMEM. The mixture was shaken for 30 min at room temperature before the addition to the cells. The cell medium was aspirated, and cells were washed with PBS twice. Cells were covered with 39 μL of DMEM and 11 μL of the complex's solution were added to the cells and incubated for 4 h (final concentration of peptide=2.5, 5 and 10 μM; final concentration of EGFP-mRNA=25 ng/well). After the incubation, the medium was replaced by 100 μL of fresh DMEM supplemented with 10% FBS. The total EGFP fluorescence was quantified after 72 h in a well plate reader. Amphiphile transfection efficiency was compared and normalized to Lipofectamine® MessengerMax efficiency (value of 1 in Tables 1-5 and 7; double underlined numbers). All experiments were done in triplicate.
as §1
(§3) Tables 14-19 show the mean (triplicates) fluorescence intensity measured after the transfection of EGFP mRNA by different amphiphiles at different concentrations in a variety of cell lines. Background fluorescence values, accounted by untreated control cells, were subtracted for processing.

[4] = system: A549 cells; assay: EGFP mRNA delivery, robotic library screening, A549
Method: as §2, §1, §3

| Substance | percentage of gene editing, GFP fluorescence intensity decrease (% of reduction) ([1]; Myristoleyl, 5 μM) | percentage of gene editing, GFP fluorescence intensity decrease (% of reduction) ([1]; Myristoleyl, 10 μM) | percentage of gene editing, GFP fluorescence intensity decrease (% of reduction) ([1]; Myristoleyl, 15 μM) | percentage of gene editing, GFP fluorescence intensity decrease (% of reduction) ([1]; Oleyl, 15 μM) | percentage of gene editing, GFP fluorescence intensity decrease (% of reduction) ([1]; Palmitoleyl, 15 μM) | mean luminescent intensity (RLuc pDNA) ([2]; Dodecanal, 5 μM) | mean luminescent intensity (RLuc pDNA) ([2]; Dodecanal, 10 μM) | mean luminescent intensity (RLuc pDNA) ([2]; Myristoleyl, 15 μM) | mean luminescent intensity (RLuc pDNA) ([2]; Palmitoleyl, 5 μM) | mean luminescent intensity (RLuc pDNA) ([2]; Petroselinyl, 5 μM) | mean luminescent intensity (RLuc pDNA) ([2]; Petroselinyl, 15 μM) | mean fluorescence intensity (EGFP mRNA) ([3]; HeLa, Petroselinyl, 10 μM) | mean fluorescence intensity (EGFP mRNA) ([3]; Hela, Petroselinyl, 5 μM) | mean fluorescence intensity (EGFP mRNA) ([4]; Dodecanal, 2.5 μM) | mean fluorescence intensity (EGFP mRNA) ([4]; Myristoleyl, 2.5 μM) | mean fluorescence intensity (EGFP mRNA) ([4]; Palmitoleyl, 2.5 μM) | mean fluorescence intensity (EGFP mRNA) ([4]; Palmitoleyl, 10 μM) | mean fluorescence intensity (EGFP mRNA) ([4]; Petroselinyl, 2.5 μM) | mean fluorescence intensity (EGFP mRNA) ([4]; Petroselinyl, 5 μM) | mean fluorescence intensity (EGFP mRNA) ([4]; Petroselinyl, 10 μM) | further results |
| --- | --- | --- | --- | --- | --- | --- | --- | --- | --- | --- | --- | --- | --- | --- | --- | --- | --- | --- | --- | --- | --- |
| Ac-RHLK*RHK*RRLK*RH-NH2 (Ac-RHLKRHKRRLKRH-NH2; not fully specified (residues 4, 7, 11); printed as Ac-RHLK*RHK*RRLK*RH-NH2; also: linker on K* not given here) [13(3His)] | 5% | 11% | 43% | 4% | 18% | 22167 RLU | 7176 RLU | 738 RLU | 109244 RLU | 19145 RLU | 8961 RLU | 178 | 208 | 622 | 1558 | 1138 | 65 | 2598 | 1675 | 1017 | mean luminescent intensity (RLuc pDNA) ([2]; Myristoleyl, 5 μM): 94125 RLU; mean luminescent intensity (RLuc pDNA) ([2]; Petroselinyl, 10 μM): 45000 RLU; mean fluorescence intensity (EGFP mRNA) ([3]; HeLa, Myristoleyl, 2.5 μM): 621; mean fluorescence intensity (EGFP mRNA) ([3]; HeLa, Petroselinyl, 2.5 μM): 640; mean fluorescence intensity (EGFP mRNA) ([4]; Dodecanal, 5 μM): 945; mean fluorescence intensity (EGFP mRNA) ([4]; Dodecanal, 10 μM): 453; mean fluorescence intensity (EGFP mRNA) ([4]; Myristoleyl, 5 μM): 1386; mean fluorescence intensity (EGFP mRNA) ([4]; Myristoleyl, 10 μM): 696; mean fluorescence intensity (EGFP mRNA) ([4]; Oleyl, 2.5 μM): 1063; mean fluorescence intensity (EGFP mRNA) ([4]; Oleyl, 5 μM): 1233; mean fluorescence intensity (EGFP mRNA) ([4]; Oleyl, 10 μM): 109 |
| Ac-RHLK*RLK*RRLK*RL-NH2 (Ac-RHLKRLKRRLKRL-NH2; not fully specified (residues 4, 7, 11); printed as Ac-RHLK*RLK*RRLK*RL-NH2; also: linker on K* not given here) [13(Arg-His)] | 5% | 9% |  | 15% | 22% | 237160 RLU | 20219 RLU | −246 RLU | 244732 RLU | 105576 RLU | 4534 RLU | −15 | 135 | 626 | 392 | 1177 | 437 | 652 | 306 | 151 | percentage of gene editing, GFP fluorescence intensity decrease (% of reduction) ([1]; Dodecanal, 5 μM): 27%; percentage of gene editing, GFP fluorescence intensity decrease (% of reduction) ([1]; Dodecanal, 10 μM): 18%; percentage of gene editing, GFP fluorescence intensity decrease (% of reduction) ([1]; Oleyl, 5 μM): 20%; percentage of gene editing, GFP fluorescence intensity decrease (% of reduction) ([1]; Palmitoleyl, 5 μM): 15%; percentage of gene editing, GFP fluorescence intensity decrease (% of reduction) ([1]; Palmitoleyl, 10 μM): 10%; percentage of gene editing, GFP fluorescence intensity decrease (% of reduction) ([1]; Petroselinyl, 5 μM): 29%; mean luminescent intensity (RLuc pDNA) ([2]; Dodecanal, 15 μM): 2518 RLU; mean luminescent intensity (RLuc pDNA) ([2]; Oleyl, 5 μM): 18755 RLU; mean luminescent intensity (RLuc pDNA) ([2]; Oleyl, 10 μM): 2608 RLU; mean fluorescence intensity (EGFP mRNA) ([3]; HeLa, Palmitoleyl, 2.5 μM): 578; mean fluorescence intensity (EGFP mRNA) ([3]; HeLa, Petroselinyl, 2.5 μM): 360; mean fluorescence intensity (EGFP mRNA) ([4]; Oleyl, 2.5 μM): 886; mean fluorescence intensity (EGFP mRNA) ([4]; Oleyl, 5 μM): 719; mean fluorescence intensity (EGFP mRNA) ([4]; Oleyl, 10 μM): 386; mean fluorescence intensity (EGFP mRNA) ([4]; Palmitoleyl, 5 μM): 348 |
| Ac-RRHK*RLK*RRLK*RL-NH2 (Ac-RRHK(NHNH2)RLK(NHNH2)RRLK(NHNH2)RL-NH2; not fully specified; printed as Ac-RRHK*RLK*RRLK*RL-NH2; also: K*4,K*7,K*11: native or modified lysine (ε-amide to a linker)) [13(Leu-His)] | 13% | 20% | 45% |  | 21% |  |  | 429 RLU | 123206 RLU | 116309 RLU | 4972 RLU | 45 | 112 | 2133 | 882 | 1406 | 617 | 1141 | 437 | 245 | percentage of gene editing, GFP fluorescence intensity decrease (% of reduction) ([1]; Petroselinyl, 5 μM): 13%; percentage of gene editing, GFP fluorescence intensity decrease (% of reduction) ([1]; Petroselinyl, 10 μM): 16%; percentage of gene editing, GFP fluorescence intensity decrease (% of reduction) ([1]; Petroselinyl, 15 μM): 42%; mean luminescent intensity (RLuc pDNA) ([2]; Myristoleyl, 5 μM): 76409 RLU; mean luminescent intensity (RLuc pDNA) ([2]; Petroselinyl, 10 μM): 33439 RLU; mean fluorescence intensity (EGFP mRNA) ([4]; Dodecanal, 5 μM): 803; mean fluorescence intensity (EGFP mRNA) ([4]; Dodecanal, 10 μM): 170; mean fluorescence intensity (EGFP mRNA) ([4]; Myristoleyl, 5 μM): 370; mean fluorescence intensity (EGFP mRNA) ([4]; Myristoleyl, 10 μM): 569; mean fluorescence intensity (EGFP mRNA) ([4]; Palmitoleyl, 5 μM): 916 |

Source: US20250304623A1, “PEPTIDES FOR INTRACELLULAR DELIVERY” (UNIVERSIDADE DE SANTIAGO DE COMPOSTELA, priority 2022, published 2025)
